Values quoted from earlier work in patent publication US11331424B2, “Apparatus, systems and methods for delivery of medication to the brain to treat neurological conditions” (InCube Labs, LLC, priority 2009, dated 2022).
Like-named read-outs stand apart in the source and are kept apart here.

Key:
[1] = system: evoked and spontaneous epileptic neural activity; conditions: epileptic animal models
[2] = system: evoked and spontaneous epileptic neural activity; conditions: human patients
[3] = many patients; significant = more than about 10% increase in urine production or more than about 5% decrease in plasma electrolyte
[4] = oral administration

threshold dosage which produces a significant increase in diuresis and/or significant decrease in the patient's electrolyte level(s) [3]: about 20 mg
time to get into the patient's blood stream [4]: ≥ 30 min
Compound: NS(=O)(=O)c1cc(C(=O)O)c(NCc2ccco2)cc1Cl [Furosemide]
effect on evoked and spontaneous epileptic neural activity and subsequent cortical spreading depression [1]: block evoked and spontaneous epileptic neural activity and subsequent cortical spreading depression
effect on evoked and spontaneous epileptic neural activity and subsequent cortical spreading depression [2]: block evoked and spontaneous epileptic neural activity and subsequent cortical spreading depression
